Results from patent US12630498B2 (Genzyme Corporation, priority 2019, dated 2026).

Biological target: T1, human Cystic Fibrosis Transmembrane Conductance Regulator (CFTR) harboring the ΔF508 mutation (Homo sapiens, UniProt P13569, DEL508-508)
T1 construct: expressed in transfected cells; host or cells: H441 carcinoma line (G418-selected)
Experiment: H441 cell ΔF508-CFTR-HRP cell surface assay (Emax and EC50)
Type: cell-based
Details: for Emax: NCI-H441, NA = Not active
Procedure, shortened: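 H441 and 41o- bronchial epithelial cells expressing ΔF508-CFTR with an extracellular-loop-4 HRP tag were treated with a 15-point compound series (24.5–0.001 μM) for two nights, H441 at 27° C, 41o- at 37° C with 0.0005 mg/ml doxycycline. Surface HRP luminescence read; % of maximum VX809 signal and EC50 derived.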

T1 sequence (P13569 with tags, fused parts or gaps DEL508-508): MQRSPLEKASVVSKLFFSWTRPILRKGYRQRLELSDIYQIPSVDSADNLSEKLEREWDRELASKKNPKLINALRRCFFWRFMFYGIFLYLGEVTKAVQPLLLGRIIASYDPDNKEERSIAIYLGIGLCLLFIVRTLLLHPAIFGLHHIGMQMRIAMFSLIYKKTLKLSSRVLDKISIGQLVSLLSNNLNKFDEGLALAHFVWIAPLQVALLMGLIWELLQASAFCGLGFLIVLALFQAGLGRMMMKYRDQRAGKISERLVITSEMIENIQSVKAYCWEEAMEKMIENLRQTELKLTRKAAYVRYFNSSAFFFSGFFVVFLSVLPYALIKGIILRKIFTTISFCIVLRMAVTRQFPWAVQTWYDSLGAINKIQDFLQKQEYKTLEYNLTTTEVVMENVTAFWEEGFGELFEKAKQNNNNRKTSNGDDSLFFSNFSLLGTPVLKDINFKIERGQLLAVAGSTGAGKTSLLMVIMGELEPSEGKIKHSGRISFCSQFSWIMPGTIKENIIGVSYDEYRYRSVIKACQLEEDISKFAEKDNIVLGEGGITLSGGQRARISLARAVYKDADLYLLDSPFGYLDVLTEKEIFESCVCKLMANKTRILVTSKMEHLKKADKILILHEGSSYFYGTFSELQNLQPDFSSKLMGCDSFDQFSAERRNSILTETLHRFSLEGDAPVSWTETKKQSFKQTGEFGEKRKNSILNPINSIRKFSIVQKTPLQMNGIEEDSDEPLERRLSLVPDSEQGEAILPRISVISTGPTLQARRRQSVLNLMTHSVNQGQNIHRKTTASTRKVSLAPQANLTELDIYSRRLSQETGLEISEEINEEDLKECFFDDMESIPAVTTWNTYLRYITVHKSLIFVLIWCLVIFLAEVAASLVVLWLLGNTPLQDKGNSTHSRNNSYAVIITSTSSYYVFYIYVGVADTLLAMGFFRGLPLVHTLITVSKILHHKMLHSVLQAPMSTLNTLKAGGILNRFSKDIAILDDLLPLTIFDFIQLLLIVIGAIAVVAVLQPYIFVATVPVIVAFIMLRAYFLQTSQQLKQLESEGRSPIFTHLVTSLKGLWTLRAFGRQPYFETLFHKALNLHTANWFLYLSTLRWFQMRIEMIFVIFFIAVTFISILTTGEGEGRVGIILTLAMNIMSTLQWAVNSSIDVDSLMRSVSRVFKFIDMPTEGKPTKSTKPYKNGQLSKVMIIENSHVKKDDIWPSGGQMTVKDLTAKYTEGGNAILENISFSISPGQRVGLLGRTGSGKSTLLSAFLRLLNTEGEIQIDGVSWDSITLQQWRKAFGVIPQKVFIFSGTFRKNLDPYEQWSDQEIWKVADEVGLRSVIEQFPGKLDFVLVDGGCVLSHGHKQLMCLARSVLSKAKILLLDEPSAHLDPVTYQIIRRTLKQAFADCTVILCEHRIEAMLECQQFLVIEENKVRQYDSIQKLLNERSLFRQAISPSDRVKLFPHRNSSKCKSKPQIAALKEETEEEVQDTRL

Row | EC50 [µM] | Emax [%] | Compound
1 |  | 6.6 | CC(C)(SCC1CC1(F)F)[C@H](NC(=O)c1ccc2ccccc2c1OCc1ccc(S(C)(=O)=O)cc1)C(=O)O (stereo partly drawn) [Example 166, (2R)-3-(((2,2-difluorocyclopropyl)methyl)thio)-3-methyl-2-(1-((4-(methylsulfonyl)benzyl)oxy)-2-naphthamido)butanoic Acid]
2 |  | 38.4 | CC(C)(S[C@@H]1C[C@@H]2CC[C@H]1C2)[C@H](NC(=O)c1ccc2ccccc2c1OCc1ccc(S(C)(=O)=O)cc1)C(=O)O [Example 176, (R)-3-(((1S,2R,4R)-bicyclo[2.2.1]heptan-2-yl)thio)-3-methyl-2-(1-((4-(methylsulfonyl)benzyl)oxy)-2-naphthamido)butanoic Acid]
3 | 11.4 | 70.8 | Nc1ccc2c(OCc3ccc(C(F)(F)F)cc3)c(C(=O)N[C@H](C(=O)O)C3CCCC3)ccc2c1 [Example 187, (S)-2-(6-amino-1-((4-(trifluoromethyl)benzyl)oxy)-2-naphthamido)-2-cyclopentylacetic Acid]
4 | 7 | 17.9 | O=C(N[C@@H](Cc1ccc(C(F)(F)F)cc1)C(=O)O)c1ccc2ccccc2c1OCc1ccc(OC(F)(F)F)cc1 [Example 190, (S)-2-(1-((4-(trifluoromethoxy)benzyl)oxy)-2-naphthamido)-3-(4-(trifluoromethyl)phenyl)propanoic Acid]
5 |  | 6.8 | O=C(N[C@@H](Cc1ccc(C(F)(F)F)cc1)C(=O)O)c1ccc2cc(F)ccc2c1OCC1CCCCC1 [Example 204, (S)-2-(1-(cyclohexylmethoxy)-6-fluoro-2-naphthamido)-3-(4-(trifluoromethyl)phenyl)propanoic Acid]
6 | 12.8 | 119 | CC(C)C#CCOc1c(C(=O)N[C@H](C(=O)O)C(C)(C)C)ccc2cc(F)ccc12 [Example 224, (2S)-2-[[6-fluoro-1-(4-methylpent-2-ynoxy)naphthalene-2-carbonyl]amino]-3,3-dimethyl-butanoic Acid]
7 | 3.1 | 8.5 | CC(C)(C)[C@H](NC(=O)c1ccc2ccccc2c1OCc1ccncc1)C(=O)O [Example 232, (2S)-3,3-dimethyl-2-[[1-(4-pyridylmethoxy)naphthalene-2-carbonyl]amino]butanoic Acid]
8 | 0.2 | 261 | Cc1cc(F)c2ccc(C(=O)N[C@H](C(=O)O)C(C)(C)C)c(OCc3ccc(OC(F)(F)F)cc3)c2c1 [Example 271, (2S)-2-[[5-fluoro-7-methyl-1-[[4-(trifluoromethoxy)phenyl]methoxy]naphthalene-2-carbonyl]amino]-3,3-dimethyl-butanoic Acid]
9 | 0.2 | 392 | CCC(C)(C)[C@H](NC(=O)c1ccc2c(F)cc(C)cc2c1OCc1ccc(C(F)(F)F)cc1)C(=O)O [Example 272, (2S)-2-[[5-fluoro-7-methyl-1-[[4-(trifluoromethyl)phenyl]methoxy]-naphthalene-2-carbonyl]amino]-3,3-dimethyl-pentanoic Acid]
10 | 1.6 | 53 | CN(C)c1ccc2c(OCc3ccc(C(F)(F)F)cc3)c(C(=O)N[C@H](C(=O)O)C(C)(C)C)ccc2c1 [compound 85, (S)-2-(6-(dimethylamino)-1-((4-(trifluoromethyl)benzyl)oxy)-2-naphthamido)-3,3-dimethylbutanoic Acid]

More lines, now with the values behind:

Row | Compound | EC50 [µM] | Emax [%]
11 | COc1ccc2c(OCc3ccc(SC(F)(F)F)cc3)c(C(=O)N[C@H](C(=O)O)C3CCCC3)ccc2c1 [Example 162, (S)-2-cyclopentyl-2-(6-methoxy-1-((4-((trifluoromethyl)thio)benzyl)oxy)-2-naphthamido)acetic Acid] | 1.6 | 26
12 | CC(C)(SC1CCCC1)[C@H](NC(=O)c1ccc2ccccc2c1OCc1ccc(S(C)(=O)=O)cc1)C(=O)O [Example 171] |  | 16.4
13 | CC(C)(C)C[C@H](NC(=O)c1ccc2ccccc2c1OC[C@H]1CC[C@@H](C(F)(F)F)CC1)C(=O)O [Example 180, (S)-4,4-dimethyl-2-(1-(((1s,4R)-4-(trifluoromethyl)cyclohexyl)methoxy)-2-naphthamido)pentanoic Acid] | 10 | 70.7
14 | O=C(NC(C(=O)O)C(C(F)(F)F)C(F)(F)F)c1ccc2ccccc2c1OCc1ccc(C(F)(F)F)cc1 (centres unmarked) [Example 181, 4,4,4-trifluoro-3-(trifluoromethyl)-2-(1-((4-(trifluoromethyl)benzyl)oxy)-2-naphthamido)butanoic Acid] | 13.7 | 93.2
15 | O=C(NC(C(=O)O)C(C(F)(F)F)C(F)(F)F)c1ccc2cc(F)ccc2c1OCc1ccc(C(F)(F)F)cc1 (centres unmarked) [Example 182, 4,4,4-trifluoro-2-(6-fluoro-1-((4-(trifluoromethyl)benzyl)oxy)-2-naphthamido)-3-(trifluoromethyl)butanoic Acid] | 4 | 31.4
16 | O=C(NC(C(=O)O)C(C(F)(F)F)C(F)(F)F)c1ccc2ccccc2c1OCC1CCCCC1 (centres unmarked) [Example 183, 2-(1-(cyclohexylmethoxy)-2-naphthamido)-4,4,4-trifluoro-3-(trifluoromethyl)butanoic Acid] | 3.2 | 63.9
17 | NC12CCC(C(NC(=O)c3ccc4cc(F)ccc4c3OCc3ccc(OC(F)(F)F)cc3)C(=O)O)(CC1)CC2 (centres unmarked) [Example 184, 2-(4-aminobicyclo[2.2.2]octan-1-yl)-2-(6-fluoro-1-((4-(trifluoromethoxy)benzyl)oxy)-2-naphthamido)acetic Acid] |  | 11.7
18 | NC12CCC(C(NC(=O)c3ccc4cc(F)ccc4c3OCc3ccc(C(F)(F)F)cc3)C(=O)O)(CC1)CC2 (centres unmarked) [Example 185, 2-(4-aminobicyclo[2.2.2]octan-1-yl)-2-(6-fluoro-1-((4-(trifluoromethyl)benzyl)oxy)-2-naphthamido)acetic Acid] |  | 14
19 | CC(C)(C)C[C@H](NC(=O)c1ccc2cc(N)ccc2c1OCc1ccc(C(F)(F)F)cc1)C(=O)O [Example 186, (S)-2-(6-amino-1-((4-(trifluoromethyl)benzyl)oxy)-2-naphthamido)-4,4-dimethylpentanoic Acid] | 2.7 | 46.6
20 | O=C(N[C@@H](Cc1ccc(C(F)(F)F)cc1)C(=O)O)c1ccc2ccccc2c1OCC1CCCCC1 [Example 200, (S)-2-(1-(cyclohexylmethoxy)-2-naphthamido)-3-(4-(trifluoromethyl)phenyl)propanoic Acid] | 20.5 | 65.4
21 | O=C(N[C@H](C(=O)O)C(c1ccccc1)c1ccccc1)c1ccc2ccccc2c1OCc1ccc(Cl)c(Cl)c1 [Example 207, (S)-2-(1-((3,4-dichlorobenzyl)oxy)-2-naphthamido)-3,3-diphenylpropanoic Acid] | 20.4 | 40.4
22 | O=C(N[C@H](C(=O)O)C(c1ccccc1)c1ccccc1)c1ccc2cc(F)ccc2c1OCc1ccc(Cl)c(Cl)c1 [Example 209, (S)-2-(1-((3,4-dichlorobenzyl)oxy)-6-fluoro-2-naphthamido)-3,3-diphenylpropanoic Acid] | 0.4 | 71
23 | O=C(N[C@@H](Cc1ccc(C(F)(F)F)cc1)C(=O)O)c1ccc2ccccc2c1OCc1nc2ccccc2s1 [Example 213, (S)-2-(1-(benzo[d]thiazol-2-ylmethoxy)-2-naphthamido)-3-(4-(trifluoromethyl)phenyl)propanoic Acid] | 13.1 | 87.2
24 | Cc1ccc2ccc(C(=O)N[C@H](C(=O)O)C3(C)CC3)c(OCc3ccc(C(F)(F)F)cc3)c2c1 [Example 229, (2S)-2-(1-methylcyclopropyl)-2-[[7-methyl-1-[[4-(trifluoromethyl)phenyl]methoxy]naphthalene-2-carbonyl]amino]acetic Acid] | 1.8 | 177
25 | CC(C)C#CCOc1c(C(=O)N[C@H](C(=O)O)C(C)(C)C)ccc2ccccc12 [Example 235, (2S)-3,3-dimethyl-2-[[1-(4-methylpent-2-ynoxy)naphthalene-2-carbonyl]amino]butanoic Acid] | 15.2 | 211
26 | CC(C)(C)C#CCOc1c(C(=O)N[C@H](C(=O)O)C(C)(C)C)ccc2cc(F)ccc12 [Example 266, (2S)-2-[[1-(4,4-dimethylpent-2-ynoxy)-6-fluoro-naphthalene-2-carbonyl]amino]-3,3-dimethyl-butanoic Acid] | 5.4 | 149
27 | CC(C)(C)C#CCOc1c(C(=O)N[C@H](C(=O)O)C(C)(C)C)ccc2ccccc12 [Example 267, (2S)-2-[[1-(4,4-dimethylpent-2-ynoxy)naphthalene-2-carbonyl]amino]-3,3-dimethyl-butanoic Acid] | 3.4 | 288
28 | CC(C)(C)[C@H](NC(=O)c1ccc2ccccc2c1OCC1(C(F)(F)F)CC1)C(=O)O [Example 268, (2S)-3,3-dimethyl-2-[[1-[[1-(trifluoromethyl)cyclopropyl]methoxy]naphthalene-2-carbonyl]amino]butanoic Acid] | 15.4 | 74
29 | CC(C)(C)[C@H](NC(=O)c1ccc2ccccc2c1OCC#CC1CC1)C(=O)O [Example 270, (2S)-2-[[1-(3-cyclopropylprop-2-ynoxy)naphthalene-2-carbonyl]amino]-3,3-dimethyl-butanoic Acid] | 12.2 | 166
30 | CCC(C)(C)[C@H](NC(=O)c1ccc2c(F)cc(C)cc2c1OCc1ccc(OC(F)(F)F)cc1)C(=O)O [Example 273, (2S)-2-[[5-fluoro-7-methyl-1-[[4-(trifluoromethoxy)phenyl]methoxy]naphthalene-2-carbonyl]amino]-3,3-dimethyl-pentanoic Acid] | 0.1 | 339
31 | Cc1ccc2ccc(C(=O)N[C@@H](C(=O)O)C(C)(C)C)c(OCc3ccc(OC(F)(F)F)cc3)c2c1 [Example 289, (R)-3,3-dimethyl-2-(7-methyl-1-((4-(trifluoromethoxy)benzyl)oxy)-2-naphthamido)butanoic Acid] | 1.5 | 109
